The test deals with Vaccinia virus. The test can be described thus: Antiviral activity against Vaccinia virus infected in human skin fibroblasts assessed as inhibition of virus-induced cytopathogenicity. As to conditions: Orthopoxvirus vaccinia. The format is functional, organism-based.

SMILES strings stand for the structures. Activity calls are given as the source filed them. The calls are words filed in the database; no cut-off is given here.

As to `N#Cc1cn([C@@H]2O[C@H](CO)[C@@H](O)[C@@H]2O)c(=O)[nH]c1=O`, the inhibition entry is “Active”. The value for `Cc1cn([C@@H]2O[C@H](CO)[C@@H](O)[C@@H]2O)c(=O)[nH]c1=O` was “Active”.

On to `O=c1ccn([C@@H]2O[C@H](CO)[C@@H](O)[C@@H]2O)c(=O)[nH]1` [ARAURIDINE], for which the inhibition entry was “Active”.

Take `O=c1[nH]c(=O)n([C@@H]2O[C@H](CO)[C@@H](O)[C@@H]2O)cc1[N+](=O)[O-]`: the inhibition result was “Active”. The value for `O=c1[nH]c(=O)n([C@@H]2O[C@H](CO)[C@@H](O)[C@@H]2O)cc1O` was “Active”.

Values taken from ChEMBL document CHEMBL3227984, “5-Substituted uracil arabinonucleosides as potential antiviral agents” (J Med Chem, 1979).
